Results from US7612087B2, “Heterocyclic compounds as inhibitors of beta-lactamases” (Novexel, priority 2002, dated 2009).
Structures can show the parent of a compound that is named as a salt. Where two headings read alike, the source gives them in different places.

Experiments:
β-lactamase TEM1 = biological target: T1, β-lactamase TEM1 (Escherichia coli, UniProt P62593); test: Inhibition of isolated β-lactamase Tem-1 (Nitrocefin hydrolysis); format: biochemical, E.coli 250HT21; conditions: 100 μM Nitrocefin, 50 mM sodium phosphate buffer pH7.0, 37° C.
T1 construct: The β-lactamases are isolated from bacterial strains which are resistant to penicillins and cephalosporins; endogenous in cells; host or cells: E. coli 250HT21 (natural producer; French-press lysate, 100,000 g supernatant)
How it was run: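 TEM-1 from soluble extract of E. coli 250HT21, normalized enzyme, 100 μM Nitrocefin in 50 mM sodium phosphate pH 7.0 at 37 °C. Initial-rate hydrolysis read kinetically at 485 nm, with and without 5 min enzyme–inhibitor preincubation. CI50 from 6 or 8 concentrations in duplicate.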

β-lactamase P99 = biological target: T2, β-lactamase P99 (Enterobacter cloacae, UniProt P05364); test: biochemical
T2 construct: The β-lactamases are isolated from bacterial strains which are resistant to penicillins and cephalosporins; endogenous in cells; host or cells: Enterobacter cloacae 293HT6 (natural producer; French-press lysate, 100,000 g supernatant)
How it was run: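 P99 β-lactamase, taken from the soluble fraction of an Enterobacter cloacae 293HT6 lysate, was assayed at 37° C. in 50 mM sodium phosphate buffer pH7.0 with 100 μM Nitrocefin as the chromogenic substrate. Hydrolysis was followed kinetically at 485 nm at initial speed, with and without a 5 mn enzyme–inhibitor preincubation. Inhibitors were tested at 6 or 8 concentrations in duplicate, and IC50 was fitted with GraFit.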

E. coli 250CF1 (Tem3) = test: microbe, parasite or virus in culture; format: cell-based; conditions: compound at 5 mg/l, 24 hours at 37° C.; for MIC of Cefotaxime in combination with the compound: Trial 4, 250CF1 E. coli Tem3; for MIC of Piperacillin in combination with the compound: Trial 4, 250CF1 Tem3
How it was run: (§1)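 Strains were seeded into liquid-medium dilutions of β-lactamine, each supplemented with a fixed 5 mg/l of test compound, and held 24 hours at 37° C in a heating chamber. Minimal inhibitory concentration was the level at which bacterial development was wholly absent.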

[1] = system: E. cloacae 293HT6 (Class C); test: MIC, micro-dilution in liquid medium, β-lactamine with product at 5 mg/l; format: cell-based; conditions: compound at 5 mg/l, 24 hours at 37° C.; for MIC of Piperacillin in combination with the compound: Trial 9, 293HT6 Class; for MIC of Cefotaxime in combination with the compound: Trial 9, 293HT6 E. cloacae Class C
How it was run: as §1

E. coli 250BE1 (SHV4) = test: as above; format: cell-based; conditions: compound at 5 mg/l, 24 hours at 37° C.; for MIC of Cefotaxime in combination with the compound: Trial 7, 250BE1 E. coli SHV4; for MIC of Piperacillin in combination with the compound: Trial 7, 250BE1 SHV4
How it was run: as §1

E. coli 250HT21 (Tem1) = test: as above; format: cell-based; conditions: compound at 5 mg/l, 24 hours at 37° C.; for MIC of Cefotaxime in combination with the compound: Trial 2, 250HT21 E. coli Tem1; for MIC of Piperacillin in combination with the compound: Trial 2, 250HT21 Tem1
How it was run: as §1

E. coli 250HT22 (Tem2) = test: as above; format: cell-based; conditions: compound at 5 mg/l, 24 hours at 37° C.; for MIC of Cefotaxime in combination with the compound: Trial 3, 250HT22 E. coli Tem2; for MIC of Piperacillin in combination with the compound: Trial 3, 250HT22 Tem2
How it was run: as §1

[2] = system: E. coli 250HT23 (Class D); test: as above; format: cell-based; conditions: compound at 5 mg/l, 24 hours at 37° C.; for MIC of Piperacillin in combination with the compound: Trial 8, 250HT23 Class D; for MIC of Cefotaxime in combination with the compound: Trial 8, 250HT23 E. coli Class D
How it was run: as §1

E. coli 250HT26 (SHV1) = test: as above; format: cell-based; conditions: compound at 5 mg/l, 24 hours at 37° C.; for MIC of Cefotaxime in combination with the compound: Trial 6, 250HT26 E. coli SHV1; for MIC of Piperacillin in combination with the compound: Trial 6, 250HT26 SHV1
How it was run: as §1

E. coli 250SJ1 (Tem7) = test: as above; format: cell-based; conditions: compound at 5 mg/l, 24 hours at 37° C.; for MIC of Cefotaxime in combination with the compound: Trial 5, 250SJ1 E. coli Tem7; for MIC of Piperacillin in combination with the compound: Trial 5, 250SJ1 Tem7
How it was run: as §1

[3] = system: P. aeruginosa 391HT7 (PSE); test: as above; format: cell-based; conditions: compound at 5 mg/l, 24 hours at 37° C.; for MIC of Cefotaxime in combination with the compound: Trial 11, 391HT7 P. aeruginosa PSE; for MIC of Piperacillin in combination with the compound: Trial 11, 391HT7 PSE
How it was run: as §1

[4] = system: P. aeruginosa 391HT8 (PSE); test: as above; format: cell-based; conditions: compound at 5 mg/l, 24 hours at 37° C.; for MIC of Cefotaxime in combination with the compound: Trial 12, 391HT8 P. aeruginosa PSE; for MIC of Piperacillin in combination with the compound: Trial 12, 391HT8 PSE
How it was run: as §1

[5] = system: S. aureus 011GO66 (PeniR); test: as above; format: cell-based; conditions: compound at 5 mg/l, 24 hours at 37° C.; for MIC of Cefotaxime in combination with the compound: Trial 1, 011GO66 S. aureus PeniR; for MIC of Piperacillin in combination with the compound: Trial 1, 011GO66 peniR
How it was run: as §1

Serratia 301HT6 = test: as above; format: cell-based; conditions: compound at 5 mg/l; Trial 10, 301HT6 Serratia; 24 hours at 37° C.
How it was run: as §1

[6] = 100 μM Nitrocefin, 50 mM sodium phosphate buffer pH7.0, 37° C., read-out: IC50 nM/P99

T2 sequence (P05364 21-381): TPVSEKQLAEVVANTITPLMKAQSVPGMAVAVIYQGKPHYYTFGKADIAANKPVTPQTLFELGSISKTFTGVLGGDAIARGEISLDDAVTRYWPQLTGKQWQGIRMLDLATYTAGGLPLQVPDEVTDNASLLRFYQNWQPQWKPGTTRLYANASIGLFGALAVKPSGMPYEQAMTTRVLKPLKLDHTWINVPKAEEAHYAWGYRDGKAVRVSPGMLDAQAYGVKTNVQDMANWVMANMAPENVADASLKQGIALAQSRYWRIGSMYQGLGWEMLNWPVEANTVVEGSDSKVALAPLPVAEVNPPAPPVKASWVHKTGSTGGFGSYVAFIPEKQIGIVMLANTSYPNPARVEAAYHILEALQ
T1 sequence (P62593 24-286 limits assumed): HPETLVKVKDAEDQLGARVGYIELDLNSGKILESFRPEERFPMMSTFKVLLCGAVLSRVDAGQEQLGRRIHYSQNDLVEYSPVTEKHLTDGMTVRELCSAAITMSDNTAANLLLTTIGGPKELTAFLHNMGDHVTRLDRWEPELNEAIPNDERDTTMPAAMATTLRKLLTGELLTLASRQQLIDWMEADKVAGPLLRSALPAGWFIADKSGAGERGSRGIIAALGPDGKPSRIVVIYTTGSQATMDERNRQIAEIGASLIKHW

| SMILES | IC50 (β-lactamase TEM1) [nM] | IC50 (β-lactamase P99; [6]) [nM] | MIC of Cefotaxime in combination with the compound (E. coli 250CF1 (Tem3)) | MIC of Piperacillin in combination with the compound (E. coli 250CF1 (Tem3)) [µg/mL] | MIC of Piperacillin in combination with the compound [1] [µg/mL] | MIC of Cefotaxime in combination with the compound [1] [µg/mL] | MIC of Cefotaxime in combination with the compound (E. coli 250BE1 (SHV4)) | MIC of Piperacillin in combination with the compound (E. coli 250BE1 (SHV4)) [µg/mL] | MIC of Cefotaxime in combination with the compound (E. coli 250HT21 (Tem1)) | MIC of Piperacillin in combination with the compound (E. coli 250HT21 (Tem1)) [µg/mL] | MIC of Cefotaxime in combination with the compound (E. coli 250HT22 (Tem2)) | MIC of Piperacillin in combination with the compound (E. coli 250HT22 (Tem2)) [µg/mL] | MIC of Piperacillin in combination with the compound [2] [µg/mL] | MIC of Cefotaxime in combination with the compound [2] | MIC of Piperacillin in combination with the compound (E. coli 250HT26 (SHV1)) [µg/mL] | MIC of Piperacillin in combination with the compound (E. coli 250SJ1 (Tem7)) [µg/mL] | MIC of Piperacillin in combination with the compound [3] [µg/mL] | MIC of Piperacillin in combination with the compound [4] [µg/mL] | MIC of Piperacillin in combination with the compound [5] [µg/mL] | MIC of Piperacillin in combination with the compound (Serratia 301HT6) [µg/mL] | also measured |
| --- | --- | --- | --- | --- | --- | --- | --- | --- | --- | --- | --- | --- | --- | --- | --- | --- | --- | --- | --- | --- | --- |
| O=C(NCc1ccncc1)[C@H]1CC[C@@H]2CN1C(=O)N2OS(=O)(=O)[O-].[Na+] (relative stereo) [Example 42, sodium salt of trans-7-oxo-N-[(4-pyridinyl)methyl]-6-(sulphooxy)-1,6-diazabicyclo[3.2.1]octane-2-carboxamide] | 25 | 70 | <=0.04 μg/ml | 2.5 | 1.2 | 0.3 | <=0.04 μg/ml | 5 | <=0.04 μg/ml | 1.2 | <=0.04 μg/ml | 2.5 | 5 | <=0.04 μg/ml | 5 | 2.5 | >40 | >40 | 1.2 | 0.6 | MIC of Cefotaxime in combination with the compound (E. coli 250HT26 (SHV1)): <=0.04 μg/ml; MIC of Cefotaxime in combination with the compound (E. coli 250SJ1 (Tem7)): <=0.04 μg/ml; MIC of Cefotaxime in combination with the compound [3]: 20 µg/mL; MIC of Cefotaxime in combination with the compound [4]: 20 µg/mL; MIC of Cefotaxime in combination with the compound [5]: 2.5 µg/mL; MIC of Cefotaxime in combination with the compound (Serratia 301HT6): <=0.04 μg/ml |
| NC(=O)Nc1cccc(NC(=O)[C@H]2CC[C@@H]3CN2C(=O)N3OS(=O)(=O)[O-])c1.[Na+] (relative stereo) [Example 46, sodium salt of trans-N-[3-[(aminocarbonyl)amino]phenyl]-7-oxo-6-(sulphooxy)-1,6-diazabicyclo[3.2.1]octane-2-carboxamide] | 26 | 70 |  | 2.5 | >40 |  |  | 40 |  | 5 |  | >40 | 10 |  | >40 | >40 | >40 | >40 | 0.6 | 1.2 |  |
| NC(=O)C(NC(=O)[C@H]1CC[C@@H]2CN1C(=O)N2OS(=O)(=O)[O-])c1ccccc1.[Na+] (relative stereo) [Example 47, sodium salt of trans-N-(2-amino-2-oxo-1-phenylethyl)-7-oxo-6-(sulphooxy)-1,6-diazabicyclo[3.2.1]octane-2-carboxamide] | 18 | 43 |  | 5 | >40 |  |  | 5 |  | 2.5 |  | 20 | 10 |  | 2.5 | 40 | >40 | >40 | 0.6 | 1.2 |  |
| O=C(OCCc1ccccn1)[C@H]1CC[C@@H]2CN1C(=O)N2OS(=O)(=O)[O-].[Na+] (relative stereo) [Example 50, sodium salt of trans 2-(2-pyridinyl)ethyl 7-oxo-6-(sulphooxy)-1,6-diazabicyclo[3.2.1]octane-2-carboxylate] | 18 | 150 |  | 5 | >40 |  |  | 40 |  | 2.5 |  | 40 | 40 |  | 40 | 40 | >40 | >40 | 1.2 | 0.6 |  |
| O=C(NCc1cccnc1)C1CCC2CN1C(=O)N2OS(=O)(=O)O (stereo not drawn) [Example 43, sodium salt of trans-7-oxo-N-(3-pyridinylmethyl)-6-(sulphooxy)-1,6-diazabicyclo[3.2.1]octane-2-carboxamide] | 31 |  | 0.08 µg/mL | 2.5 | 2.5 | 0.08 | <=0.04 μg/ml | 10 | <=0.04 μg/ml | 1.2 | <=0.04 μg/ml | 1.2 | 2.5 | <=0.04 μg/ml | 5 | 5 | >40 | >40 | 1.2 | 0.6 | IC50 (β-lactamase P99): 76 nM; MIC of Cefotaxime in combination with the compound (E. coli 250HT26 (SHV1)): <=0.04 μg/ml; MIC of Cefotaxime in combination with the compound (E. coli 250SJ1 (Tem7)): <=0.04 μg/ml; MIC of Cefotaxime in combination with the compound [3]: 20 µg/mL; MIC of Cefotaxime in combination with the compound [4]: 20 µg/mL; MIC of Cefotaxime in combination with the compound [5]: 2.5 µg/mL; MIC of Cefotaxime in combination with the compound (Serratia 301HT6): <=0.04 μg/ml |
